Test results from US20150018311A1, “THERAPEUTIC BORON-CONTAINING COMPOUNDS” (priority 2012, published 2015).

Columns and labels:
Assay in all cases: Growth in liquid media in presence of test compound
Assay type in all cases: cell-based
[1] = test system: Pseudomonas aeruginosa (ATCC 27853)
Text: (§1) Test organisms used were the bacterial strains Escherichia coli (ATCC 25922), Pseudomonas aeruginosa (ATCC 27853), Staphylococcus aureus (ATCC 25923), Streptococcus pyogenes (ATCC 19615), and Mycobacterium tuberculosis (H37Rv), and the yeast strain Candida albicans (ATCC 90028).
(§2) The liquid media used for growth were Luria-Bertani (Becton Dickinson, Sparks, Md.) and Mueller-Hinton (bio-Merieux, Paris, France) broths, but with Saburo medium for Candida and Middlebrook 7H9 medium (Difco) for mycobacteria.
(§3) The strains were grown at 37° C. and after suitable cell concentrations had been reached, 100 μL of each cell suspension was added to a tube with growth media and test compound. Cultivation of the bacteria was then carried out in the presence of each test compound at 37° C. and the tubes examined for visible growth. The compounds were tested at concentrations of either 500 mg/l, 50 mg/l or 5 mg/l. This assay was repeated twice.
(§4) Some compounds were only tested against some test organisms. It will be appreciated that the charge of these molecules will depend on the environment, some of the Examples are shown with a suitable counter ion, some without.

[2] = test system: Streptococcus pyogenes (ATCC 19615)
Text: as §1, §2, §3, §4

[3] = test system: Staphylococcus aureus (ATCC 25923)
Text: as §1, §2, §3, §4

[4] = test system: Candida albicans (ATCC 90028)
Text: as §1, §2, §3, §4

[5] = test system: Escherichia coli (ATCC 25922)
Text: as §1, §2, §3, §4

[6] = test system: Mycobacterium tuberculosis (H37Rv)

Row | SMILES | Growth in the presence of test compound, P. aeruginosa ([1]; 5 mg/L) | Growth in the presence of test compound, P. aeruginosa ([1]; 50 mg/L) | Growth in the presence of test compound, P. aeruginosa ([1]; 500 mg/L) | Growth in the presence of test compound, S. pyogenes ([2]; 5 mg/L) | Growth in the presence of test compound, S. pyogenes ([2]; 50 mg/L) | Growth in the presence of test compound, S. pyogenes ([2]; 500 mg/L) | Growth in the presence of test compound, S. aureus ([3]; 5 mg/L) | Growth in the presence of test compound, S. aureus ([3]; 50 mg/L) | Growth in the presence of test compound, S. aureus ([3]; 500 mg/L) | Growth in the presence of test compound, C. albicans ([4]; 5 mg/L) | Growth in the presence of test compound, C. albicans ([4]; 50 mg/L) | Growth in the presence of test compound, C. albicans ([4]; 500 mg/L) | Growth in the presence of test compound, E. coli ([5]; 5 mg/L) | Growth in the presence of test compound, E. coli ([5]; 50 mg/L) | Growth in the presence of test compound, E. coli ([5]; 500 mg/L) | Growth in the presence of test compound, M. tuberculosis ([6]; 5 mg/L) | Growth in the presence of test compound, M. tuberculosis ([6]; 50 mg/L) | Growth in the presence of test compound, M. tuberculosis ([6]; 500 mg/L)
1 | CC1(C)C2CC3OB(CC(CCc4ccccc4)NC(=O)C(N)CCCCN)OC3(C)C1C2 (stereo not drawn) [Compound 7] | + | + | ± | + | + | − | + | + | − | + | + | − | + | + | − | + | + | −
2 | CC1(C)C2CC3OB([C@@H](CNC(=O)[C@@H](N)CCCNC(=N)N)Cc4ccccc4)O[C@]3(C)C1C2 (stereo partly drawn) [Compound 11] | + | + | − | + | + | − | + | + | − | + | + | − | + | + | − | ± | − | −
3 | CC1(C)C2CC3OB([C@@H](CNC(=O)[C@H](N)CCCCN)Cc4ccccc4)O[C@]3(C)C1C2 (stereo partly drawn) [Compound 12] | + | + | ± | + | + | − | + | + | ± | + | + | − | + | + | − | ± | − | −
4 | C[C@@H](B1OC2CC3CC(C3(C)C)[C@@]2(C)O1)[C@@H](Cc1ccccc1)NC(=O)[C@@H]1CCCN1 (stereo partly drawn) [Compound 29] | + | + | ± | + | + | − | + | + | − | + | + | ± |  |  |  | + | + | −
